Laboratory results as given in ChEMBL document CHEMBL3286387, “α-Tetralone derivatives as inhibitors of monoamine oxidase” (Bioorg Med Chem Lett, 2014).

What was measured:
[1] = target: T1, Amine oxidase [flavin-containing] A (Homo sapiens, UniProt P21397); test: Inhibition of recombinant human MAO-A using kynuramine as substrate assessed as 4-hydroxyquinoline production after 30 mins by fluorescence spectrophotometry analysis
T1 sequence (P21397 whole entry): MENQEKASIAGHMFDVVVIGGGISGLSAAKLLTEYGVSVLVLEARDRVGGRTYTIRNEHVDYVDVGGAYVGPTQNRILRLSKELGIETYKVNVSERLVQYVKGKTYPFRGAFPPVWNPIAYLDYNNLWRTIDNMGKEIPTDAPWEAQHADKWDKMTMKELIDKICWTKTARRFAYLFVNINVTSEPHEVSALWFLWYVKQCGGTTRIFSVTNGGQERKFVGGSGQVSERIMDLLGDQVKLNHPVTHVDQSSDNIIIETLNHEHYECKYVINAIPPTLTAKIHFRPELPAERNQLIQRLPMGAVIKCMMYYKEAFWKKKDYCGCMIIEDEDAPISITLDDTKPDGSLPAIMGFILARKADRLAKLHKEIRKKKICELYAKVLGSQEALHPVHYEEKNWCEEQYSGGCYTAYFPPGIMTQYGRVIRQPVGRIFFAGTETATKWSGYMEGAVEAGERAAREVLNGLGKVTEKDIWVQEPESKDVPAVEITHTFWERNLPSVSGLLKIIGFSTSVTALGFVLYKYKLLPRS

[2] = target: T2, Amine oxidase [flavin-containing] B (Homo sapiens, UniProt P27338); test: Inhibition of recombinant human MAO-B using kynuramine as substrate assessed as 4-hydroxyquinoline production after 30 mins by fluorescence spectrophotometry analysis
T2 sequence (P27338 whole entry): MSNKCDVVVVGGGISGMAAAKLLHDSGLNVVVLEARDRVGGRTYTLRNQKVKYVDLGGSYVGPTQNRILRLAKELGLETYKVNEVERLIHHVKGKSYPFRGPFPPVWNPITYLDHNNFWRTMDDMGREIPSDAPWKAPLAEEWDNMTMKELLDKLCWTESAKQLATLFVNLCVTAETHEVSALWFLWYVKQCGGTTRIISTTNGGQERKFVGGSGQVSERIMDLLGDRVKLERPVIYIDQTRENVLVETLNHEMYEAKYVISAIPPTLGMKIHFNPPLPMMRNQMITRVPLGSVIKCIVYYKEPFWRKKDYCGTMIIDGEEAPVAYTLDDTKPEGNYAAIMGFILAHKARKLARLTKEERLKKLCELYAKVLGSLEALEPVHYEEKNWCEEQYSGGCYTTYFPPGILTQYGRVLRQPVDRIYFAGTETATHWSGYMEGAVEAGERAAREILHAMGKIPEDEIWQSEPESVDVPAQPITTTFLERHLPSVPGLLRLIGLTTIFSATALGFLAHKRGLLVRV

[3] = organism: Homo sapiens; test: Selectivity index, ratio of IC50 for recombinant human MAO-A to IC50 for recombinant human MAO-B
[4] = target: T2, Amine oxidase [flavin-containing] B; test: Reversible inhibition of recombinant human MAO-B using kynuramine as substrate assessed as enzyme residual activity at 4 times IC50 incubated for 15 mins measured after 24 hrs by fluorescence spectrophotometry analysis relative to control
[5] = target: T2, Amine oxidase [flavin-containing] B; test: Competitive inhibition of recombinant human MAO-B using kynuramine as substrate by Lineweaver-Burk plot analysis
[6] = target: T1, Amine oxidase [flavin-containing] A; test: Reversible inhibition of recombinant human MAO-A using kynuramine as substrate assessed as enzyme residual activity at 4 times IC50 incubated for 15 mins measured after 24 hrs of dialysis by fluorescence spectrophotometry analysis relative to control
[7] = target: T1, Amine oxidase [flavin-containing] A; test: Reversible inhibition of recombinant human MAO-A using kynuramine as substrate assessed as enzyme residual activity at 4 times IC50 incubated for 15 mins measured after 24 hrs by fluorescence spectrophotometry analysis relative to control
[8] = target: T1, Amine oxidase [flavin-containing] A; test: Competitive inhibition of recombinant human MAO-A using kynuramine as substrate by Lineweaver-Burk plot analysis

| Compound | IC50 [1] | IC50 [2] | Ratio IC50 [3] | Activity [4] | Ki [5] | Activity [7] | Ki [8] | Activity [6] |
| --- | --- | --- | --- | --- | --- | --- | --- | --- |
| O=C1CCCc2cc(OCc3cccc(I)c3)ccc21 | 1290 nM | 4.5 nM | 287 | 23% | 7.1 nM |  |  |  |
| Cc1ccc(COc2ccc3c(c2)CCCC3=O)cc1 | 2090 nM | 11 nM | 190 |  |  |  |  |  |
| O=C1CCCc2cc(OCc3cccc(Br)c3)ccc21 | 212 nM | 9 nM | 24 |  |  |  |  |  |
| N#Cc1ccc(COc2ccc3c(c2)CCCC3=O)cc1 | 656 nM | 11 nM | 60 |  |  |  |  |  |
| O=C1CCCc2cc(OCCc3ccccc3)ccc21 | 1320 nM | 33 nM | 40 |  |  |  |  |  |
| O=C1CCCc2cc(OCc3ccc(C(F)(F)F)cc3)ccc21 | 547 nM | 6 nM | 91 |  |  |  |  |  |
| O=C1CCCc2cc(OCc3ccc(F)cc3)ccc21 | 266 nM |  |  |  |  |  |  |  |
| O=C1CCCc2cc(OCc3cccc(F)c3)ccc21 | 392 nM | 17 nM | 23 |  |  |  |  |  |
| O=C1CCCc2cc(OCc3ccc(Br)cc3)ccc21 | 311 nM | 9 nM | 35 |  |  |  |  |  |
| N#Cc1cccc(COc2ccc3c(c2)CCCC3=O)c1 | 24 nM | 78 nM | 0.3 |  |  | 44% | 25 nM | 108% |
| O=C1CCCc2cc(OCCCc3ccccc3)ccc21 | 1160 nM | 32 nM | 36 |  |  |  |  |  |
| C#CCN(C)Cc1ccccc1 [PARGYLINE] |  |  |  |  |  |  |  | 1.6% |

Further lines, with some results ahead:

| IC50 [1] | IC50 [2] | Ratio IC50 [3] | Activity [4] | Ki [5] | Activity [7] | Ki [8] | Compound | Activity [6] |
| --- | --- | --- | --- | --- | --- | --- | --- | --- |
| 43800 nM | 66400 nM | 0.7 |  |  |  |  | O=C1CCCc2cc(O)ccc21 |  |
| 14800 nM | 18600 nM | 0.8 |  |  |  |  | O=C1CCCc2ccccc21 |  |
| 207 nM | 15 nM | 14 |  |  |  |  | O=C1CCCc2cc(OCc3cccc(Cl)c3)ccc21 |  |
| 792 nM | 63 nM | 13 |  |  |  |  | O=C1CCCc2cc(OCc3ccccc3)ccc21 |  |
| 2250 nM | 6.5 nM | 346 |  |  |  |  | O=C1CCCc2cc(OCc3ccc(I)cc3)ccc21 |  |
| 238 nM |  |  |  |  |  |  | O=C1CCCc2cc(OCc3ccc(Cl)cc3)ccc21 |  |
